In ChEMBL document CHEMBL1144891, “Design, synthesis, and pharmacology of a highly subtype-selective GluR1/2 agonist, (RS)-2-amino-3-(4-chloro-3-hydroxy-5-isoxazolyl)propionic acid (Cl-HIBO)” (J Med Chem, 2003):

Key:
[1] = Neurotoxicity was determined in cultured mouse cortical neurons; format: toxicity
[2] = biological target: Glutamate receptor 3 (Homo sapiens, UniProt P42263); assay: Binding affinity of compound was determined towards cloned Ionotropic glutamate receptor AMPA 3 (GluR3) expressed in Sf 9 insect cells
[3] = biological target: Glutamate receptor 2 (Homo sapiens, UniProt P42262); assay: biochemical
[4] = biological target: T1, Glutamate receptor ionotropic, kainate 3 (Rattus norvegicus, UniProt P42264); assay: Binding affinity of compound was determined against KA receptor, using radioligand [3H]- KA
[5] = biological target: Glutamate receptor ionotropic, kainate 2 (Homo sapiens, UniProt Q13002); assay: Binding affinity of compound was determined towards cloned Ionotropic glutamate receptor ionotropic kainate 6 (GluR6) expressed in Sf 9 insect cells
[6] = biological target: Glutamate receptor 4 (Homo sapiens, UniProt P48058); assay: Binding affinity of compound was determined towards cloned Ionotropic glutamate receptor AMPA 4 (GluR4) expressed in Sf 9 insect cells
[7] = biological target: Glutamate receptor 4 (Rattus norvegicus, UniProt P19493); assay: Effective concentration of compound was determined for electrophysiological properties on Ionotropic glutamate receptor AMPA 4 (GluR4) using […] Xenopus laevis oocytes; format: functional, cell-based, Oocyte
[8] = biological target: Glutamate receptor ionotropic, NMDA 2C (Rattus norvegicus, UniProt Q00961); assay: Binding affinity of compound was determined against N-methyl-D-aspartate glutamate receptor, using radioligand [3H]- CGP-39653
[9] = biological target: Glutamate receptor 3 (Rattus norvegicus, UniProt P19492); assay: Effective concentration of compound was determined for electrophysiological properties on Ionotropic glutamate receptor AMPA 3 (GluR3) using […] Xenopus laevis oocytes; format: functional, cell-based, Oocyte
[10] = biological target: T2, Metabotropic glutamate receptor 1 (Homo sapiens, UniProt Q13255); assay: Antagonist activity of compound at Metabotropic glutamate receptor 1 alpha was determined; format: functional
[11] = biological target: Glutamate receptor ionotropic, kainate 1 (Homo sapiens, UniProt P39086); assay: Binding affinity of compound was determined towards cloned Ionotropic glutamate receptor ionotropic kainate 1 (GluR5) expressed in Sf 9 insect cells
[12] = biological target: Glutamate receptor 2 (Rattus norvegicus, UniProt P19491); assay: Effective concentration of compound was determined for electrophysiological properties on Ionotropic glutamate receptor AMPA 2 (GluR2) using […] Xenopus laevis oocytes; format: functional, cell-based, Oocyte
[13] = species: Rattus norvegicus; assay: Effective concentration of compound was determined for electrophysiological properties on iGluRs using rat cortical slice model in Xenopus laevis oocytes
[14] = biological target: Glutamate receptor 1 (Homo sapiens, UniProt P42261); assay: Binding affinity of compound was determined towards cloned Ionotropic glutamate receptor AMPA 1 (GluR1) expressed in Sf 9 insect cells
[15] = biological target: Glutamate receptor 1 (Rattus norvegicus, UniProt P19490); assay: Binding affinity of compound was determined against Ionotropic glutamate receptor AMPA receptor, using radioligand [3H]- AMPA
[16] = biological target: T2, Metabotropic glutamate receptor 1; assay: Antagonist activity of compound at Metabotropic glutamate receptor 1 was determined; format: functional
[17] = biological target: T1, Glutamate receptor ionotropic, kainate 3; assay: Binding affinity of compound was determined against Ionotropic glutamate receptor ionotropic kainate, using radioligand [3H]- KA
[18] = biological target: Glutamate receptor 1 (Mus musculus, UniProt P23818); assay: Effective concentration of compound was determined for electrophysiological properties on […] glutamate receptor 1 using […] Xenopus laevis oocytes; format: functional, cell-based, Oocyte

Chain of Glutamate receptor 2 (Homo sapiens, UniProt P42262) (P42262 whole entry): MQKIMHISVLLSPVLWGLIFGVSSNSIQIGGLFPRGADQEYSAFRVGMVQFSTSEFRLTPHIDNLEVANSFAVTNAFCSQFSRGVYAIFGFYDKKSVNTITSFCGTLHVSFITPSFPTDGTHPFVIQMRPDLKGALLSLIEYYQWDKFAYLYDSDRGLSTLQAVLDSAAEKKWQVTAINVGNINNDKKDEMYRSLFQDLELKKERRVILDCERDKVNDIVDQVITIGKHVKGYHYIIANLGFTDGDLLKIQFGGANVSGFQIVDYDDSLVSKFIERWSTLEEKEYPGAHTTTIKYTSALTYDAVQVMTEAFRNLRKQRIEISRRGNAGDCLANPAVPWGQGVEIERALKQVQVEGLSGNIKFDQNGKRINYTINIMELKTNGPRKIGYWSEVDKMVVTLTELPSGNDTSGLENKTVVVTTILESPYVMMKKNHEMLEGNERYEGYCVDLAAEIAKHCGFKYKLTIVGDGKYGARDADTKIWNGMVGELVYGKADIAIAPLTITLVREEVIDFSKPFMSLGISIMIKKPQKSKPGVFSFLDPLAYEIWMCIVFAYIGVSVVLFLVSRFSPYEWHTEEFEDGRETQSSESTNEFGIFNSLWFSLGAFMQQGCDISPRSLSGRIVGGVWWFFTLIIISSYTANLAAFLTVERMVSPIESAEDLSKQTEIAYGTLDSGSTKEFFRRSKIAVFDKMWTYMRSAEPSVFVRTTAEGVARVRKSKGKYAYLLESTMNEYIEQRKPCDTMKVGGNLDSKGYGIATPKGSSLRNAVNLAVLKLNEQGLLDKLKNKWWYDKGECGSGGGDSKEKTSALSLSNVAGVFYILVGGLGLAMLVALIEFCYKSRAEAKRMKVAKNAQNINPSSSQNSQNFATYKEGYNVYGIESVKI
Chain of Glutamate receptor 1 (Homo sapiens, UniProt P42261) (P42261 whole entry): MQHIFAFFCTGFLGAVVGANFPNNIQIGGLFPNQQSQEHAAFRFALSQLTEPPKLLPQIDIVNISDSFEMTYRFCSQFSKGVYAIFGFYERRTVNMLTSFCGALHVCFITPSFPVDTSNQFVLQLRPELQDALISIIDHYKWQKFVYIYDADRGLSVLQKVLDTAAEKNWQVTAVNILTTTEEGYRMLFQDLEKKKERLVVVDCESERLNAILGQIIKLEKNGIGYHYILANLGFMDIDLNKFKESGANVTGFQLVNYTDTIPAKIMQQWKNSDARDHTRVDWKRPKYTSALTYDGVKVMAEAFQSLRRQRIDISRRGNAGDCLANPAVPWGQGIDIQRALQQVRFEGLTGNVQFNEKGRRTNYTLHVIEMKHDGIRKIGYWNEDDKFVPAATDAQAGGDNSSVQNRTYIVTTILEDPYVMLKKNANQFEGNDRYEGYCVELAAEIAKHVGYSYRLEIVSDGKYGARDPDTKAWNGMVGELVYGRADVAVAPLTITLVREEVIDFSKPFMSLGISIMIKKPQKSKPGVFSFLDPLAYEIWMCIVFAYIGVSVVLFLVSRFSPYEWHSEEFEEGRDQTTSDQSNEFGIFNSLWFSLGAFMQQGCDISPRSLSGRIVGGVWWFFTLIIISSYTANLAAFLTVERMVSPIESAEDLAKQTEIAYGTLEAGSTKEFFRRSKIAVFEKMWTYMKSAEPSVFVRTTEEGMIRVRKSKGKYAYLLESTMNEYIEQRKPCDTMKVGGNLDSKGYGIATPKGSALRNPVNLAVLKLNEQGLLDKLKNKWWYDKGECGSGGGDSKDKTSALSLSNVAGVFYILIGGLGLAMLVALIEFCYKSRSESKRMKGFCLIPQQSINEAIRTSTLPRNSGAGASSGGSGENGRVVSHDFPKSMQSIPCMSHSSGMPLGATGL
Chain of Glutamate receptor ionotropic, NMDA 2C (Q00961 whole entry): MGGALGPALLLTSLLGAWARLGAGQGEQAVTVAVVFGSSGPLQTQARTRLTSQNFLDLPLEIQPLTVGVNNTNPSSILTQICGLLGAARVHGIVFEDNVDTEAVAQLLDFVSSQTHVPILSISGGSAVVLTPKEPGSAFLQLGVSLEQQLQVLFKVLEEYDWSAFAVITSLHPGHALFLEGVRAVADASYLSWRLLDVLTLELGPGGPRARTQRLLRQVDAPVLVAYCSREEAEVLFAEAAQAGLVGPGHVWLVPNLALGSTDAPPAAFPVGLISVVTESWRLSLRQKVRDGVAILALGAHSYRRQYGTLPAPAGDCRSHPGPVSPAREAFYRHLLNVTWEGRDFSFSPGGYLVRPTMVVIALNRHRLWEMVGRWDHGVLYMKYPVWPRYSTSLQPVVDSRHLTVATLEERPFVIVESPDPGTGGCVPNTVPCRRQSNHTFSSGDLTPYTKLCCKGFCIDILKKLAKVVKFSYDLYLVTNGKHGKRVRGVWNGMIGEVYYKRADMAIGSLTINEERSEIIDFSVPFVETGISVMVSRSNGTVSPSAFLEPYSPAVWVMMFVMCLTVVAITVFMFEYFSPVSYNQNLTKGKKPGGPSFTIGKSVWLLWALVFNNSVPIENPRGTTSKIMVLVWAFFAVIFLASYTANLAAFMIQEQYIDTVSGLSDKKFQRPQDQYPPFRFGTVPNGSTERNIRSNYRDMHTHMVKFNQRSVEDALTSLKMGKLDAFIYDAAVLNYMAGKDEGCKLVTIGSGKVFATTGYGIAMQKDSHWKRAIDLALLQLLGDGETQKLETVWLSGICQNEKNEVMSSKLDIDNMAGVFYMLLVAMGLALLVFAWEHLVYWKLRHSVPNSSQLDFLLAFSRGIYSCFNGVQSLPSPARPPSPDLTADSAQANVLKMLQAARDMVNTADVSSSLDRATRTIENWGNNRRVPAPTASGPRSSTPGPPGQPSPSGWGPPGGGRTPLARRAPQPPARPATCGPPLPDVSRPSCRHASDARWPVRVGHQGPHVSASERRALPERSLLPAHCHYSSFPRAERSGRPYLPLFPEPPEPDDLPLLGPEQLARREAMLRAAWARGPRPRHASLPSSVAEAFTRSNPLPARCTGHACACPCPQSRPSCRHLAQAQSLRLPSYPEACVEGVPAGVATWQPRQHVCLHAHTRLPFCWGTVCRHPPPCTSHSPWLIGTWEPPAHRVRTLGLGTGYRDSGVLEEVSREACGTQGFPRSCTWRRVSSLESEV
Chain of Glutamate receptor 3 (Homo sapiens, UniProt P42263) (P42263 whole entry): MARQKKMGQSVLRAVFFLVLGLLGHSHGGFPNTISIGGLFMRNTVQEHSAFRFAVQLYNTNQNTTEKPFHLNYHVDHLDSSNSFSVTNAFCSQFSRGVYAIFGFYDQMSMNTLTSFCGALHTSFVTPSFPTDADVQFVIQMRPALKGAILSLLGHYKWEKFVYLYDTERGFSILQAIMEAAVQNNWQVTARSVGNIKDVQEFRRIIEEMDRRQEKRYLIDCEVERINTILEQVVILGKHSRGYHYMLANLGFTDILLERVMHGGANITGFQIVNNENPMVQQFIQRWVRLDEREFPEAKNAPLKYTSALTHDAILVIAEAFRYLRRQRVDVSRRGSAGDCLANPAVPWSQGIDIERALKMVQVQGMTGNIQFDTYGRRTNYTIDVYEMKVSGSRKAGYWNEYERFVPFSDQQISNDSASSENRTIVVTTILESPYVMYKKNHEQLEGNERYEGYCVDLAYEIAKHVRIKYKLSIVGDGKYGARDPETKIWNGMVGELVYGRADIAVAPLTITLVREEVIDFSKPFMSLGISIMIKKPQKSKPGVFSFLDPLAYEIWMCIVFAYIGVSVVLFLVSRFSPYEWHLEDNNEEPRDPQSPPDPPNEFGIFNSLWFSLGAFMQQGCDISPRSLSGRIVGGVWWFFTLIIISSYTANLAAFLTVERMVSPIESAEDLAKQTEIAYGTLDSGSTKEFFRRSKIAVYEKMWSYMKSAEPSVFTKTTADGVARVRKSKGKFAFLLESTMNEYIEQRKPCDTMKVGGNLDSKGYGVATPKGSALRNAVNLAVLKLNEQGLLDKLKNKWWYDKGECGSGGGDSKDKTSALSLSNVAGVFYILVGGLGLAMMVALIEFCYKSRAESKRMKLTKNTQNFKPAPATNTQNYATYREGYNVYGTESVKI
Chain of Glutamate receptor ionotropic, kainate 1 (P39086 whole entry): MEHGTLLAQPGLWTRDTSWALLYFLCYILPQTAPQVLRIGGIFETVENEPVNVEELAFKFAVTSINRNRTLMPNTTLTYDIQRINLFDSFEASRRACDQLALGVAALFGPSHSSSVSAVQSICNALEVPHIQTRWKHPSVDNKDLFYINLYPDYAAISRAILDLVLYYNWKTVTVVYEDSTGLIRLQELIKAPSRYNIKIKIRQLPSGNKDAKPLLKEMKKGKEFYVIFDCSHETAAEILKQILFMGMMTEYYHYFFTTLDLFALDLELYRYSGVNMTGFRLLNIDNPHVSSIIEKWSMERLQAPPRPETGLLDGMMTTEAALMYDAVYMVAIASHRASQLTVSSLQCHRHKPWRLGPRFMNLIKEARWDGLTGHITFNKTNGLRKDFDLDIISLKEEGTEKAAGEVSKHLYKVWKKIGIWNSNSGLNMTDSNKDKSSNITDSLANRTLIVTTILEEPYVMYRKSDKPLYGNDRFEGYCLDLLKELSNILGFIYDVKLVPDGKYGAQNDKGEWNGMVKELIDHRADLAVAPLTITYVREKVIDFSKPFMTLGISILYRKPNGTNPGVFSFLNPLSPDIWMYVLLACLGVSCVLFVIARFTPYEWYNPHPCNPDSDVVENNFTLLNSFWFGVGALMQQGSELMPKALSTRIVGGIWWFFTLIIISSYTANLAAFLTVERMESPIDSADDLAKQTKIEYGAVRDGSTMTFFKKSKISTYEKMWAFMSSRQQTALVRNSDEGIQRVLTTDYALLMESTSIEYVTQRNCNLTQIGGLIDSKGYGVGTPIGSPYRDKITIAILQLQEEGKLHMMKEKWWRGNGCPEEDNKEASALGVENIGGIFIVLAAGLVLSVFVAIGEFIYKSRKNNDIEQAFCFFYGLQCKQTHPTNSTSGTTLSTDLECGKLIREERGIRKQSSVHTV
Chain of Glutamate receptor 2 (Rattus norvegicus, UniProt P19491) (P19491 whole entry): as the sequence (P42262 whole entry) above, with M191T, T291A, R764G, A852P counted along it

SMILES | EC50 [1] | Ki [2] | Ki [3] | IC50 [4] | Ki [5] | Ki [6] | EC50 [7] | Ki [8] | EC50 [9] | Ki [10] | Ki [11] | EC50 [12] | EC50 [13] | Ki [14] | IC50 [15] | Ki [16] | IC50 [17] | EC50 [18]
NC(Cc1onc(O)c1Cl)C(=O)O (configuration not stated) | 27 µM | 27.5 µM | 0.37 µM | > 100 µM | > 100 µM | 11.9 µM | 1300 µM | 18 µM | 2700 µM | 860 µM | 6.8 µM | 1.7 µM | 39 µM | 0.13 µM | 0.22 µM |  |  | 
NC(Cc1onc(O)c1Br)C(=O)O (configuration not stated) | 16 µM | 12 µM | 0.25 µM |  | > 100 µM | 11.7 µM |  | 34 µM |  |  | 4.8 µM |  |  | 0.17 µM |  | 329 µM | > 100 µM | 14 µM
Cc1onc(O)c1CC(N)C(=O)O [(R,S)-AMPA] | 13 µM |  |  |  |  |  |  |  |  |  |  |  |  |  |  |  |  | 
